From patent publication US6552059B2, “Pharmaceutical composition for and method of treating leukemia” (priority 1995, dated 2003) come the findings set out here.

In one experiment the test system is leukemia (P388SS). The experiment is classed as in vivo, mouse. The settings on record: for % increase in survival time versus nontreated control: control = 100. As for the experimental part:
In an in vivo mouse study for leukemia (P388SS), carbendazim (2-carbonylaminobenzimidazole) was tested in combination with griseofulvin.

In a further experiment the test system is leukemia (P338). The class given is in vivo. The settings on record: ten mice; for mean number of survival days: dosed 5 days, off 2, dosed 5, off 3. As for the experimental part: Mice were randomly selected and divided into five groups of ten mice each: Group 1—a control group receiving canola oil but no drug treatment; Group 2—a treatment group receiving 125 mg of cytoxan (2-bis(2-chloroethyl)-amino-1-oxo-2-aza-5-oxophosphoridin) per kg of body weight; Group 3—a treatment group receiving 4000 mg of carbendazim per kg of body weight; Group 4—a treatment group receiving 2500 mg of carbendazim per kg of body weight; and Group 5—a treatment group receiving 1000 mg of carbendazim per kg of body weight. The five groups were infected with leukemia (P338). The diseased animals were dosed for five days, off two days, dosed again for another five days and off again for three days.

SMILES strings stand for the structures. Like-named read-outs stand apart in the source and are kept apart here.

As for `COC1=CC(=O)C[C@@H](C)[C@]12Oc1c(Cl)c(OC)cc(OC)c1C2=O` [Griseofulvin], the “% increase in survival time versus nontreated control” value in the experiment with leukemia (P388SS) (griseofulvin 3000 mg/kg, carbendazim 0 mg/kg) was 130%; in the experiment with leukemia (P388SS) (griseofulvin 4000 mg/kg, carbendazim 0 mg/kg), 165%; in the experiment with leukemia (P388SS) (griseofulvin 5000 mg/kg, carbendazim 0 mg/kg), 213%.
With `COC(=O)Nc1nc2ccccc2[nH]1` [carbendazim, 2-(methoxycarbonylamino)benzimidzole], the “mean number of survival days” value worked out at 17.3 days with leukemia (P338) (Group 3, 4000 mg carbendazim per kg, after infection with leukemia); 16.5 days in the experiment on leukemia (P338) (Group 4, 2500 mg carbendazim per kg); 14.1 days with leukemia (P338) (Group 5, 1000 mg carbendazim per kg). Also, the “% increase in survival time versus nontreated control” value in the experiment with leukemia (P388SS) (griseofulvin 0 mg/kg, carbendazim 1000 mg/kg) is 153%; in the experiment with leukemia (P388SS) (griseofulvin 0 mg/kg, carbendazim 2000 mg/kg) it was 190%; with leukemia (P388SS) (griseofulvin 0 mg/kg, carbendazim 3000 mg/kg), 176%.
For `O=P1(N(CCCl)CCCl)NCCCO1` (centres unmarked) [cytoxan, 2-bis(2-chloroethyl)-amino-1-oxo-2-aza-5-oxophosphoridin, reference compound], the “deaths after infection with leukemia” value in the experiment on leukemia (P338) (Group 2, 125 mg cytoxan per kg, up to twenty one days after infection) is “none died”. Moreover, the “deaths during the test period” value with leukemia (P388SS) (positive control, 300 mg/kg (qdx1)) is recorded as “no deaths”.
